Test results as given in US20150329498A1, “IRAK INHIBITORS AND USES THEREOF” (Nimbus Iris, Inc., priority 2014, published 2015).

Tests used:
IRAK4 = molecular target: T1, IRAK4 (Homo sapiens, UniProt Q9NWZ3); assay: IRAK-4 activity inhibition assay (Caliper); assay type: biochemical; details: 3.5 nM IRAK4, 1.5 μM Peptide 8, 37 μM ATP
T1 construct: purchased CARNA Bioscience 09-145
T1 sequence (Q9NWZ3 1-460): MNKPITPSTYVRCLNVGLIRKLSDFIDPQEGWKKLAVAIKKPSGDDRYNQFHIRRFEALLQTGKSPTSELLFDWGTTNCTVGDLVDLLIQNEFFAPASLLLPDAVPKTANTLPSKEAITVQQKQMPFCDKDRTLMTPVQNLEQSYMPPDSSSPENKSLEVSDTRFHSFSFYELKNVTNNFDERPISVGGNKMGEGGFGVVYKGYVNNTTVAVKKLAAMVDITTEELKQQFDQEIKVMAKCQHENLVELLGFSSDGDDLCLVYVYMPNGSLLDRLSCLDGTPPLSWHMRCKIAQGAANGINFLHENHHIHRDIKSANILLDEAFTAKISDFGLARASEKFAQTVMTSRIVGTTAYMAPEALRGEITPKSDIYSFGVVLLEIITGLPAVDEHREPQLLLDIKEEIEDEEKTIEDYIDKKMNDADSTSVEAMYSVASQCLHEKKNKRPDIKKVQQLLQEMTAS
Method: A 1x kinase base buffer was prepared from 50 mM HEPES, pH 7.5 and 0.0015% Brij-35. A stop buffer was prepared from 100 mM HEPES, pH 7.5, 0.015% Brij-35, 0.2% Coating Reagent #3, and 50 mM EDTA.
Test compound was diluted to 50× of the final desired highest inhibitor concentration in reaction by 100% DMSO. 100 ul of this compound dilution was transferred to a well in a 96-well plate. For example, if desired highest inhibitor concentration in IC50 determination is 100 uM, then prepare 5000 uM of compound DMSO solution in this step.
Test compound was serially diluted by transferring 30 μl to 60 μl of 100% DMSO in the next well and so forth for a total of 10 concentrations. 100 μl of 100% DMSO was added to two empty wells for no compound control and no enzyme control in the same 96-well plate.
A new 96-well plate was marked as intermediate plate. 5 μl of compound serial dilution was transferred from source plate to the corresponding wells of the intermediate plate. 45 μl of 1x kinase base buffer (KB buffer) was added to each well of the intermediate plate. The intermediate plate was placed for 10 min on a shaker.
5 μl of each well was transferred from the 96-well intermediate plate to a 384-well plate in duplicates. For example, A1 of the 96-well plate is transferred to A1 and A2 of the 384-well plate. A2 of the 96-well plate is transferred to A3 and A4 of the 384-well plate, and so on.
IRAK4 and DTT in 1x kinase base buffer was added. The 2.5x enzyme mix contained 8.8 nM IRAK4 and 5 mM DTT.
Peptide 8, ATP, MgCl2 and MnCl2 were added in the 1x kinase base buffer. The 2.5x peptide mix contained 3.75 μM peptide 8, 92.5 μM ATP, 12.5 mM MgCl2 and 2.5 mM MnCl2.
Assay plate already contained 5 μl of compound in 10% DMSO. Added 10 μl of 2.5x enzyme solution to each well of the 384-well assay plate, except no enzyme control wells. The final concentration of IRAK4 in reaction was 3.5 nM. Added 10 μl of 1x kinase base buffer to no enzyme control wells in the assay plate. Incubated at room temperature for 10 min.
Added 10 μl of 2.5x peptide solution to each well of the 384-well assay plate. The final concentration of Peptide 8 and ATP was 1.5 μM and 37 μM, respectively. Incubated at for 40 minutes. Added 25 μl of stop buffer to stop reaction. Collected data on Caliper.
Copied conversion % data from Caliper program. Converted conversion % values to percent inhibition values. Percent inhibition=(max−conversion %)/(max−min)*100, where “max” means the conversion % of DMSO control and “min” means the conversion % of no enzyme control.
The compound numbers correspond to the compound numbers in Table 1. Compounds having an activity designated as “A” provided an IC50≦5 μM; compounds having an activity designated as “B” provided an IC50 of 5-20 μM; compounds having an activity designated as “C” provided an IC50 of 20-50 μM; and compounds having an activity designated as “D” provided an IC50≧50 μM. “NA” stands for “not assayed.”

[1] = tested on: TNFα production in THP-1 cells; assay: LPS induced TNFα production assay in THP-1 cells; assay type: cell-based; details: Homo sapiens, 300 ng/mL LPS, measured at 5 hours
Method: (§1) Provided compounds were also assayed in an LPS (Lipopolysaccharide) or R848 (TLR-7 agonist) induced cytokine (TNFα and IL8) production assay in THP-1 cells, human white blood cells (hWBC), and human whole blood. The exemplary protocol for this assay in THP-1 cells was as follows below.
(§2) THP-1 cells from ATCC (TIB-202) were cultured in RPMI Medium 1640 (Invitrogen, Cat No. A10491-01), 10% fetal bovine serum (Invitrogen, Cat No. 10099141, Lot No. 8172882) containing 100 U/mL Penicillin, 100 μg/mL streptomycin (Invitrogen, Cat No. 15140-122), and 50 uM 2-Mercaptoethanol (Invitrogen, Cat No. 21985023). LPS-EK ultra pure (Invivogen, Cat No. tlrl-peklps) was used to induce IL8 and TNFα production, that was detected in the cell culture supernatant by IL8 HTRF kit (Cisbio, Cat No. 62IL8PEB) and TNFα HTRF kit (Cisbio, Cat No. 62TNFPEB), as per manufacturer instructions. Cells were cultured in 96 well assay plates at 100,000 cells per well, and compounds diluted in final 0.3% DMSO were pre-incubated with cells for 1 hour prior to stimulation with 300 ng/mL LPS. Cytokine production in cell supernatant was measured at 5 hours for TNFα production, and at 16 hours for IL8 production and assessment of cell viability.
(§3) The compound numbers correspond to the compound numbers in Table 1. Compounds having an activity designated as “A” provided an IC50≦0.5 μM; compounds having an activity designated as “B” provided an IC50 of 0.5-5.0 μM; compounds having an activity designated as “C” provided an IC50>5.0 μM. “NA” stands for “not assayed.”

[2] = tested on: IL8 production in THP-1 cells; assay: LPS induced IL8 production assay in THP-1 cells; assay type: cell-based; details: Homo sapiens, 300 ng/mL LPS, measured at 16 hours
Method: as §1, §2, §3

SMILES	IC50 (IRAK4) [nM]	IC50 [1] [nM]	IC50 [2] [nM]
NC(=O)/C=C/c1ccc2ncnc(N[C@H]3CC[C@H](N4CCOCC4)CC3)c2c1 [Compound I-54, (E)-3-(4-(((1r,4r)-4-morpholinocyclohexyl)amino)quinazolin-6-yl)acrylamide]	≤ 5000	500 to 5000	> 5000
N#Cc1ccc2nc(Nc3cnn(C4CCC(O)CC4)c3)nc(N[C@H]3CC[C@H](N4CCOCC4)CC3)c2c1 (some centres unmarked) [Compound I-28, 2-((1-(4-hydroxycyclohexyl)-1H-pyrazol-4-yl)amino)-4-(((1r,4r)-4-morpholinocyclohexyl)amino)quinazoline-6-carbonitrile]	≤ 5000	≤ 500	≤ 500
N#Cc1ccc2nc(Nc3cnn(CCO)c3)nc(N[C@H]3CC[C@H](N4CCOCC4)CC3)c2c1 [Compound I-22, 2-((1-(2-hydroxyethyl)-1H-pyrazol-4-yl)amino)-4-(((1r,4r)-4-morpholinocyclohexyl)amino)quinazoline-6-carbonitrile]	≤ 5000	500 to 5000	≤ 500
CCc1ccc2ncnc(N[C@H]3CC[C@H](N4CCC5(CC4)CC5)CC3)c2c1 [Compound I-39, N-((1r,4r)-4-(6-azaspiro[2.5]octan-6-yl)cyclohexyl)-6-ethyl-quinazolin-4-amine]	≤ 5000	≤ 500	≤ 500
NC(=O)c1ccc2ncnc(N[C@H]3CC[C@H](N4CCOCC4)CC3)c2c1 [Compound I-5, 4-(((1r,4r)-4-morpholinocyclohexyl)amino)quinazoline-6-carboxamide]	≤ 5000	500 to 5000	> 5000
N#CCc1ccc2ncnc(N[C@H]3CC[C@H](N4CCC5(CC4)CC5)CC3)c2c1 [Compound I-52, 2-(4-(((1r,4r)-4-(6-azaspiro[2.5]octan-6-yl)cyclohexyl)amino)quin-azolin-6-yl)acetonitrile]	≤ 5000	≤ 500	≤ 500
c1nc(N[C@H]2CC[C@H](N3CCOCC3)CC2)c2c3c(ccc2n1)CCC3 [Compound I-29, N-((1r,4r)-4-morpholinocyclohexyl)-8,9-dihydro-7H-cyclo-penta[f]quinazolin-1-amine]	≤ 5000	500 to 5000	≤ 500
N#Cc1ccc2nc(Nc3cnn(C4CCOCC4)c3)nc(N[C@H]3CC[C@H](N4CCOCC4)CC3)c2c1 [Compound I-16, 4-(((1r,4r)-4-morpholinocyclohexyl)amino)-2-((1-(tetrahydro-2H-pyran-4-yl)-1H-pyrazol-4-yl)amino)quinazoline-6-carbonitrile]	≤ 5000	≤ 500	≤ 500
Clc1ccc2ncnc(N[C@H]3CC[C@H](N4CCC5(CC4)COC5)CC3)c2c1 [Compound I-27, N-((1r,4r)-4-(2-oxa-7-azaspiro[3.5]nonan-7-yl)cyclohexyl)-6-chloroquinazolin-4-amine]	≤ 5000	≤ 500	≤ 500
N#Cc1ccc2nc(Nc3cnn(CCOCCO)c3)nc(N[C@H]3CC[C@H](N4CCOCC4)CC3)c2c1 [Compound I-24, 2-((1-(2-(2-hydroxyethoxy)ethyl)-1H-pyrazol-4-yl)amino)-4-(((1r,4r)-4-morpholinocyclohexyl)amino)quinazoline-6-carbonitrile]	≤ 5000	500 to 5000	≤ 500
OC/C=C/c1ccc2ncnc(N[C@H]3CC[C@H](N4CCOCC4)CC3)c2c1 [Compound I-41, (E)-3-(4-(((1r,4r)-4-morpholinocyclohexyl)amino)quinazolin-6-yl)prop-2-en-1-ol]	≤ 5000	≤ 500	≤ 500
N#CCc1ccc2ncnc(N[C@H]3CC[C@H](N4CCC5(CC4)COC5)CC3)c2c1 [Compound I-58, 2-(4-(((1r,4r)-4-(2-oxa-7-azaspiro[3.5]nonan-7-yl)cyclohexyl)-amino)quinazolin-6-yl)acetonitrile]	≤ 5000	≤ 500	≤ 500
OCC#Cc1ccc2ncnc(N[C@H]3CC[C@H](N4CCOCC4)CC3)c2c1 [Compound I-30, 3-(4-(((1r,4r)-4-morpholinocyclohexyl)amino)quinazolin-6-yl)prop-2-yn-1-ol]	≤ 5000	≤ 500	≤ 500
CS(=O)(=O)CCCn1cc(Nc2nc(N[C@H]3CC[C@H](N4CCOCC4)CC3)c3cc(C#N)ccc3n2)cn1 [Compound I-25, 2-((1-(3-(methylsulfonyl)propyl)-1H-pyrazol-4-yl)amino)-4-(((1r,4r)-4-morpholinocyclohexyl)amino)quinazoline-6-carbonitrile]	≤ 5000	500 to 5000	500 to 5000
Clc1ccc2ncnc(N[C@H]3CC[C@H](N4CCC5(CC4)CC5)CC3)c2c1 [Compound I-36, N-((1r,4r)-4-(6-azaspiro[2.5]octan-6-yl)cyclohexyl)-6-chloro-quinazolin-4-amine]	≤ 5000	≤ 500	500 to 5000
Brc1ccc2ncnc(N[C@H]3CC[C@H](N4CCOCC4)CC3)c2c1 [Compound I-2, 6-bromo-N-((1r,4r)-4-morpholinocyclohexyl)quinazolin-4-amine]	≤ 5000	≤ 500	≤ 500
OCCCc1ccc2ncnc(N[C@H]3CC[C@H](N4CCOCC4)CC3)c2c1 [Compound I-46, 3-(4-(((1r,4r)-4-morpholinocyclohexyl)amino)quinazolin-6-yl)propan-1-ol]	≤ 5000	≤ 500	≤ 500
C=Cc1ccc2ncnc(N[C@H]3CC[C@H](N4CCOCC4)CC3)c2c1 [Compound I-20, N-((1r,4r)-4-morpholinocyclohexyl)-6-vinylquinazolin-4-amine]	≤ 5000	≤ 500	–
